Data as given in US12679827B2, “Pyrimidine compounds and their pharmaceutical uses” (National Health Research Institutes, priority 2020, dated 2026).

Key:
[1] = system: NCI-H69; experiment: Small-cell-lung cancer cell proliferation inhibition assay (PrestoBlue), NCI-H69; assay type: cell-based; settings: Homo sapiens, MYCN amplified SCLC cells, 72 hours
Procedure: (§1) Small cell lung cancer cells NCI-H82 (ATCC HTB-175, cMYC amplified), NCI-H446 (ATCC® HTB-171, cMYC amplified), and NCI-H69 (ATCC® HTB-119, MYCN amplified) were seeded at the density of 5000-10000 cells per well in 96-well plates. After 24 hours, the cancer cells were treated with each compound at various concentrations (0-10 μM) and then incubated for another 72 hours. IC50 values were computed based on duplicated 8-point titration.

[2] = system: NCI-H446; experiment: Small-cell-lung cancer cell proliferation inhibition assay (PrestoBlue), NCI-H446; assay type: cell-based; settings: Homo sapiens, cMYC amplified SCLC cells, 72 hours
Procedure: as §1

[3] = system: NCI-H82; experiment: Small-cell-lung cancer cell proliferation inhibition assay (PrestoBlue), NCI-H82; assay type: cell-based; settings: Homo sapiens, cMYC amplified SCLC cells, 72 hours
Procedure: as §1

[4] = system: NCI-H446 xenografted tumor; experiment: Inhibition of xenografted tumor growth, NCI-H446-xenografted tumorigenicity mouse model; assay type: in vivo, mice; settings: 100 mg/kg orally; for tumor regression: NCI-H446 xenograft
Procedure: The efficacies of two compounds of Formula (I), i.e., compound 71 and compound 122, in inhibiting tumor growth were determined using a NCI-H446-xenografted tumorigenicity mouse model as below.
Male athymic nu/nu nude mice (BioLASCO, Taiwan) at age 6 wk were housed in sterile cages maintained under 12-h light/dark cycles with controlled temperature and humidity. The mice were inoculated s.c. with 1×10^6 NCI-H446 cells (ATCC® HTB-171) resuspended in saline mixed with 50% Metrigel Matrix (Corning, USA). The sizes of the xenografted tumors were measured by a digital caliper (GMC-190; Goldsun Electronics Co.) and calculated using the algorithm: tumor volume (mm^3)=length×(width)^2/2. Body weight and tumor size were measured at least twice a week.

[5] = system: cMYC; experiment: In vivo cMYC protein level reduction, NCI-H446 xenograft mouse model, Western blot; parameters: species or system mice; settings: one oral dosage of 100 mg/kg; tumors harvested 2-24 hours; FIG. 3
Procedure: (§2) The efficacy of a compound of Formula (I), i.e., compound 71, in reducing the cMYC protein level and in inducing cell apoptosis was assessed using an NCI-H446 xenograft tumorigenicity mouse model as follows.
(§3) Male athymic nu/nu nude mice (BioLASCO. Taiwan) at 6-week age were housed in sterile cages maintained under 12-h light/dark cycles with controlled temperature and humidity. Mice were inoculated s.c. with 1×10^6 NCI-H446 cells resuspended in saline mixed with 50% Metrigel Matrix (Corning, USA). The sizes of the xenografted tumors were measured by a digital caliper (GMC-190; Goldsun Electronics Co.) and calculated using the algorithm: tumor volume (mm^3)=length×(width)^2/2. Body weight and tumor size were measured at least twice a week. When the xenografted NCI-H446 tumor reached a size ≥500 mm^3, the xenografted tumor-bearing nude mice were oral (PO) administered with compound 71 at one dosage of 100 mg/kg. Tumors were harvested at 2 hours, 4 hours, 8 hours, and 24 hours after the administration. Tissue lysates of the tumors were subjected for Western blot analysis. The primary antibodies used were cMYC (Cell Signaling, Cat No. 5605S), PARP-1 (Abcam, ab32378), and β-ACTIN (Sigma-Aldrich, A1978).

[6] = system: cleaved PARP-1 (cPARP-1); experiment: In vivo cell apoptosis induction (cleaved PARP-1), NCI-H446 xenograft mouse model, Western blot; parameters: species or system mice; settings: one oral dosage of 100 mg/kg; 24 hours after administration; FIG. 3
Procedure: as §2, §3

[7] = target: T1, human Aurora A (amino acids 123-401) (Homo sapiens, UniProt O14965); experiment: Kinase-Glo Luminescent Kinase assay, in vitro inhibition of Aurora A kinase activity; assay type: biochemical; settings: recombinant GST-tagged Aurora A, 5.0 μM ATP, 37° C., 120 minutes
T1 construct: human Aurora A (amino acids 123-401) was expressed in Sf9 insect cells; GST; made in house; host or cells: Sf9 insect cells
T1 sequence (O14965 123-401): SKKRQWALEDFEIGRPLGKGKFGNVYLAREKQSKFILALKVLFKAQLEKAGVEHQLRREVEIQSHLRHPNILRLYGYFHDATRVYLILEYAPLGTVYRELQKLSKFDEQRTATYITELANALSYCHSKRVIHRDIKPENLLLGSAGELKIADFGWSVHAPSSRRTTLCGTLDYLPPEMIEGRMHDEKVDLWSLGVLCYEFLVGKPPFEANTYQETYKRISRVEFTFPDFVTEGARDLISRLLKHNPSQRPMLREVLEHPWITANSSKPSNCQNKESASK
Procedure: Recombinant glutathione S-transferase (GST)-tagged N-terminal truncated human Aurora A (amino acids 123-401) was expressed in Sf9 insect cells and then purified by glutathione affinity chromatography to afford recombinant Aurora A. Recombinant Aurora A (150 ng) was reacted with each test compound (100 nM) in 50 μL of 50 mM Tris-HCl pH 7.4, 10 mM NaCl, 10 mM MgCl2, 0.01% bovine serum albumin, 5.0 μM ATP, 1 mM dithiothreitol, 15 μM tetra(-LRRASLG) peptide at 37° C. for 120 minutes. Then, to the reaction was added 50 μL of Kinase-Glo Plus Reagent. The resulting mixture was incubated at 25° C. for 20 minutes. A 70 μL aliquot of the mixture was transferred to a black microliter plate. Luminescence was measured using a Wallac Vector 1420 multilabel counter (PerkinElmer, USA).

[8] = background statement, WO 2014/190207A1; cited from earlier work

| IC50 [1] [nM] | IC50 [2] [nM] | IC50 [3] [nM] | IC50 [7] [nM] | Structure (SMILES) | tumor regression [4] | further results |
| --- | --- | --- | --- | --- | --- | --- |
| < 1000 | < 1000 | < 1000 | – | CCC(=O)n1nc(C)cc1Nc1cc(N2CCN(CC)CC2)nc(N[C@H]2CCN(C(=O)c3ccc(Cl)cc3F)C2)n1 [Compound 71] | more than 80% | tumor size after treatment ([4]; 5-on-2-off, from about 250 mm^3, in 10 days, FIG. 2A): smaller than 50 mm^3; tumor size after treatment ([4]; 5-on-2-off, from larger than 750 mm^3, in 14 days, FIG. 2C): smaller than 50 mm^3; xenografted tumors with reduced cMYC protein level [5]: more than 50%; xenografted tumors with increased amounts of cleaved PARP-1 (cell apoptosis) [6]: more than 80% |
| < 1000 | < 1000 | < 1000 | < 100 | CCC(=O)n1nc(C)cc1Nc1cc(N2CCN(CC)CC2)nc(NC2CCN(C(=O)c3cccc(Cl)c3F)CC2)n1 [Compound 122] | more than 80% | tumor size after treatment ([4]; from about 250 mm^3, FIG. 2B): smaller than 50 mm^3 |
| – | – | – | – | O=C(Nc1ccc(Nc2nccc(Nc3cc(C4CCCC4)[nH]n3)n2)cc1)Nc1cccc(C(F)(F)F)c1 [CD532] | – | in vivo efficacy [8]: weak |
| – | – | – | – | COc1cc(Nc2ncc3c(n2)-c2ccc(Cl)cc2C(c2c(F)cccc2OC)=NC3)ccc1C(=O)O [MCLN8237, reference compound] | – | tumor size 6 weeks after the treatment stopped ([4]; FIG. 2A): > 700 mm^3 |
| < 1000 | < 1000 | < 1000 | < 100 | Cc1cc(Nc2cc(N3C[C@H](C)NC[C@H]3C)nc(NC3CCN(C(=O)c4cccc(Cl)c4F)CC3)n2)n[nH]1 [Compound 107] | – | – |
| < 1000 | < 1000 | < 1000 | < 100 | CCC(=O)n1nc(Nc2cc(N3CCN(CC)CC3)nc(NC3CCN(C(=O)c4cccc(Cl)c4F)CC3)n2)cc1C [Compound 123] | – | – |
